Reference: patent US20190119200A1, “TERTIARY AMIDES AND METHOD OF USE” (AbbVie Inc., priority 2016, published 2019)

Columns and labels:
[1] = target: T1, LPAR1 (Homo sapiens, UniProt Q92633); test: LPAR1 FLIPR Assay; assay type: cell-based; settings: U2OS cells stably expressing LPAR1, LPA (EC80), Calcium 6 FLIPR dye; for Emax: read-out: Maximum Inhibition
T1 construct: host or cells: U2OS
Procedure, shortened: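 Calcium flux read-out (515-575 nm, FLIPR) in LPAR1-expressing U2OS cells after LPA challenge at EC80, given 3 min after compound addition; cells carried Calcium 6 dye loaded 2 h at 37° C. Eleven-point 3-fold dilutions were fitted with a four-parameter Hill equation for IC50.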

[2] = tested on: LPA-induced MCP-1 in NRK-49F cells; test: LPA-induced MCP-1 AlphaLISA assay; assay type: cell-based; settings: Rattus norvegicus, final LPA 10 μM, 7 hours; for Emax: read-out: Maximum Inhibition
Description: Two days prior to the experiment, NRK-49F cells were plated at 8,000 cells/well in 100 μL of growth medium [DMEM (Life Technologies #11995) with 5% dFBS (Life Technologies #30067-334), 100 units/mL penicillin/streptomycin (Life Technologies #15140122)] in 96-well clear flat bottom polystyrene TC-treated microplate (Corning® #3599) and incubated in humidified 10% CO2 at 37° C. One day prior to the experiment, the cell medium was removed and serum free medium [100 μL/well, DMEM (Life Technologies #11995) with 0.1% fatty acid free BSA (Sigma #A6003)] was added with continued incubation in humidified 10% CO2 at 37° C. overnight. On the day of the assay, test compounds were 1:3 serially diluted in 100% DMSO using a BioTek Precision™ system and then transferred (equivalent volume of DMSO as controls) to a plate in serum free medium [DMEM with 0.1% fatty acid free BSA] using a Biomek® NX workstation to give a 2× compound solution. The cell culture medium was removed, and cells were pre-treated with 50 μL/well of 2× compound in serum free medium [DMEM with 0.1% fatty acid free BSA] at 37° C. for 30 minutes. Following the incubation, 50 μL/well of 20 μM LPA diluted in serum free medium [DMEM with 0.1% fatty acid free BSA] was added to the cells. Serum free medium [DMEM with 0.1% fatty acid free BSA] was used as substitution for low control wells while 20 µM LPA was added to high control wells and test compound wells. 200 µM LPA was added to EC100 wells. Final DMSO concentration was 1% in every well. Final LPA concentration in test compound wells and high control wells was 10 μM. […] After the incubation, cell supernatant was transferred to a new 96 well polypropylene plate (Greiner #651201) where it was sealed and stored at −80° C. On the detection day, 5 μL of thawed cell supernatant was transferred to a new white opaque 384-well microplate (Perkin Elmer #6007299). An AlphaLISA® mouse/rat CCL2/MCP1, Immunoassay Research kit (PerkinElmer #AL509F) was used. A mixture (20 μL/well) of AlphaLISA® Anti-Analyte Accept beads (10 μg/mL final) and Biotinylated Antibody Anti-Analyte (freshly prepared, 1 nM final) was added. The mixture in the wells was mixed and then incubated at room temperature for 1 hour. Then SA-Donor beads (25 μL/well, 40 μg/mL final) were added giving a final volume of 50 μL/well. The contents of the wells were mixed and then incubated at room temperature for 0.5 hour (protect from light). The plate was read using the default Envision™ Alpha protocol (PerkinElmer). IC50 values were calculated from curve fits of the ratio data using a four-parameter logistic Hill equation (Assay Explorer 3.3 Client).

T1 sequence (Q92633 whole entry): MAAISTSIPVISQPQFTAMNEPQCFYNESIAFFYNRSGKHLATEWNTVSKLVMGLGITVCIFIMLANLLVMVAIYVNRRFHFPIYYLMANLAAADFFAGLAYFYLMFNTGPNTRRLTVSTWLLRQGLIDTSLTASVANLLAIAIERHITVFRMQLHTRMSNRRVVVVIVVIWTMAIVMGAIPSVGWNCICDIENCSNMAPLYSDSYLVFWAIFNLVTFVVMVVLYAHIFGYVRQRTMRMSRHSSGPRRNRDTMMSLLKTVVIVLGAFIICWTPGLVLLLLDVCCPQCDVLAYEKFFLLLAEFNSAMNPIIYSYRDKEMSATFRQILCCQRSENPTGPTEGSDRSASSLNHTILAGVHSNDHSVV

Compound | IC50 [1] [µM] | Emax [1] [%] | IC50 [2] [µM] | Emax [2] [%]
COc1cc(C(=O)N(CCCCC(=O)NS(=O)(=O)C2CC2)CCCc2ccccc2)cc(OC)c1C [Example 119, N-{5-[(cyclopropanesulfonyl)amino]-5-oxopentyl}-3,5-dimethoxy-4-methyl-N-(3-phenylpropyl)benzamide] | 0.097 | 92 | 1.17 | 80
COc1cc(C(=O)N(CCCc2ccccc2)C[C@H](O)CCC(=O)O)cc(OC)c1C [Example 120, (4R)-5-[(3,5-dimethoxy-4-methylbenzoyl)(3-phenylpropyl)amino]-4-hydroxypentanoic Acid] | 0.039 | 81 | 5.24 | 65
CCS(=O)(=O)NC(=O)CCCCN(CCCc1ccccc1)C(=O)c1cc(OC)c(C)c(OC)c1 [Example 123, N-{5-[(ethanesulfonyl)amino]-5-oxopentyl}-3,5-dimethoxy-4-methyl-N-(3-phenylpropyl)benzamide] | 0.046 | 94 | 0.793 | 85
COc1cc(C(=O)N(CCCCC(=O)NS(=O)(=O)C(C)C)CCCc2ccccc2)cc(OC)c1C [Example 124, 3,5-dimethoxy-4-methyl-N-{5-oxo-5-[(propane-2-sulfonyl)amino]pentyl}-N-(3-phenylpropyl)benzamide] | 0.059 | 92 | 1.15 | 88
COc1cc(C(=O)N(CCCc2cc(F)cc(F)c2)CCSCC(=O)O)cc(OC)c1C [Example 125, [(2-{[3-(3,5-difluorophenyl)propyl](3,5-dimethoxy-4-methylbenzoyl)amino}ethyl)sulfanyl]acetic Acid] | > 10 | 32 | > 10 | 53
COc1cc(C(=O)N(CCCCC(=O)O)CCCc2cc(F)cc(F)c2)cc(OC)c1C [Example 126, 5-{[3-(3,5-difluorophenyl)propyl](3,5-dimethoxy-4-methylbenzoyl)amino}pentanoic Acid] | 0.119 | 74 | 3.89 | 75
COc1cc(C(=O)N(CCCc2cc(Cl)cc(Cl)c2)CCOCC(=O)O)cc(OC)c1C [Example 127, (2-{[3-(3,5-dichlorophenyl)propyl](3,5-dimethoxy-4-methylbenzoyl)amino}ethoxy)acetic Acid] | > 10 | 7 | > 10 | 14
COc1cc(OC)cc(C(=O)N(CCCCC(=O)O)CCCc2ccc(C)o2)c1 [Example 133, 5-{(3,5-dimethoxybenzoyl)[3-(5-methylfuran-2-yl)propyl]amino}pentanoic Acid] | 0.046 | 78 | 3.19 | 68
COc1cc(OC)cc(C(=O)N(CCCCC(=O)O)CCCc2ccccc2Cl)c1 [Example 135, 5-{[3-(2-chlorophenyl)propyl](3,5-dimethoxybenzoyl)amino}pentanoic Acid] | > 10 | 32 | > 10 | 25
COc1cc(OC)cc(C(=O)N(CCCCC(=O)O)CCCc2cc(F)cc(F)c2)c1 [Example 136, 5-{[3-(3,5-difluorophenyl)propyl](3,5-dimethoxybenzoyl)amino}pentanoic Acid] | > 10 | 15 | > 10 | 47
COc1cc(OC)cc(C(=O)N(CCCCC(=O)O)CCCc2c(F)cccc2F)c1 [Example 137, 5-{[3-(2,6-difluorophenyl)propyl](3,5-dimethoxybenzoyl)amino}pentanoic Acid] | 0.092 | 64 | > 10 | 28
COc1cc(C(=O)N(CCCCC(=O)NS(=O)(=O)c2cccnc2)CCCc2ccccc2)cc(OC)c1C [Example 142, 3,5-dimethoxy-4-methyl-N-{5-oxo-5-[(pyridine-3-sulfonyl)amino]pentyl}-N-(3-phenylpropyl)benzamide] | 0.076 | 88 | 0.831 | 90
COc1cc(C(=O)N(CCCCC(=O)NS(=O)(=O)c2ccncc2)CCCc2ccccc2)cc(OC)c1C [Example 143, 3,5-dimethoxy-4-methyl-N-{5-oxo-5-[(pyridine-4-sulfonyl)amino]pentyl}-N-(3-phenylpropyl)benzamide] | 0.081 | 83 | 1.35 | 66
COc1cc(C(=O)N(CCCCC(=O)NS(=O)(=O)c2ccccc2)CCCc2ccccc2)cc(OC)c1C [Example 144, N-{5-[(benzenesulfonyl)amino]-5-oxopentyl}-3,5-dimethoxy-4-methyl-N-(3-phenylpropyl)benzamide] | 0.099 | 92 | 1.09 | 96
COc1cc(C(=O)N(CCCOC(=O)NS(=O)(=O)c2ccc(F)cc2)CCCc2ccccc2)cc(OC)c1C [Example 145, 3-[(3,5-dimethoxy-4-methylbenzoyl)(3-phenylpropyl)amino]propyl (4-fluorobenzene-1-sulfonyl)carbamate] | 0.437 | 51 | 3.96 | 59
COc1cc(C(=O)N(CCCCC(=O)O)CCCc2ccc(F)cc2F)cc(OC)c1C [Example 146, 5-{[3-(2,4-difluorophenyl)propyl](3,5-dimethoxy-4-methylbenzoyl)amino}pentanoic Acid] | 0.046 | 89 | 0.807 | 79
COc1cc(OC)cc(C(=O)N(CCCCC(=O)O)CCCc2ccc(F)cc2)c1 [Example 148, 5-{(3,5-dimethoxybenzoyl)[3-(4-fluorophenyl)propyl]amino}pentanoic Acid] | > 10 | 47 | > 10 | 40
COc1cc(C(=O)N(CCCCC(=O)NS(=O)(=O)C(F)(F)F)CCCc2ccccc2)cc(OC)c1C [Example 150, 3,5-dimethoxy-4-methyl-N-{5-oxo-5-[(trifluoromethanesulfonyl)amino]pentyl}-N-(3-phenylpropyl)benzamide] | 0.045 | 73 | 2.03 | 67
COc1ccc(C2(C(=O)N(CCCCC(=O)O)CCCc3ccccc3)CC(=O)C2)cc1 [Example 152, 5-{[1-(4-methoxyphenyl)-3-oxocyclobutane-1-carbonyl](3-phenylpropyl)amino}pentanoic Acid] | 0.085 | 88 | 6.17 | 64
COc1cc(C(=O)N(CCCc2ccccc2)CCCC(C)C(=O)NS(C)(=O)=O)cc(OC)c1C (stereo not drawn) [Example 161, N-{5-[(methanesulfonyl)amino]-4-methyl-5-oxopentyl}-3,5-dimethoxy-4-methyl-N-(3-phenylpropyl)benzamide] | 0.099 | 99 | 0.079 | 88
COc1cc(C(=O)N(CCCc2ccccc2)CCCC(C)(C)C(=O)NS(C)(=O)=O)cc(OC)c1C [Example 162, N-{5-[(methanesulfonyl)amino]-4,4-dimethyl-5-oxopentyl}-3,5-dimethoxy-4-methyl-N-(3-phenylpropyl)benzamide] | 0.076 | 100 | 0.007 | 94
